Source: patent US20150071989A1, “LIPOSOMES FOR HEMATOLOGICAL TUMORS” (University of Tennessee Research Foundation, priority 2013, published 2015)

Tests used:
Jurkat cells = test: MTT cell viability assay, in vitro cytotoxicity in CD22- Jurkat cells; assay type: cell-based; conditions: Homo sapiens
Method: FIG. 14A is a graph showing the in vitro cytotoxicity of targeted, drug-loaded liposomes (solid line, “CD22 Targeted NP”) and untargeted, drug-loaded liposomes (dotted line, “Untargeted NP”) in Jurkat cells after 24 hours. The Jurkat cells lack the cell surface antigen (CD22) to which the antibody of the targeted liposomes binds. For comparison, the in vitro cytotoxic effects of free (solution) drug (N-benzyladriamycin-14-valerate (AD198)) are also shown (dashed line, “Solution Drug”). Cytotoxicity is expressed as percentage (%) cell kill as measured via (3-(4,5-dimethylthiazol-2-yl)-2,5-diphenyltetrazolium bromide (MTT) cell viability assay. The data represents the average of three measurements; the error bars represent±standard deviation.
FIG. 15A is a graph showing the in vitro cytotoxicity of targeted, drug-loaded liposomes (solid line, “CD22 Targeted NP”) and untargeted, drug-loaded liposomes (dotted line, “Untargeted NP”) in Jurkat cells after 48 hours. […] Cytotoxicity is expressed as percentage (%) cell kill as measured via (3-(4,5-dimethylthiazol-2-yl)-2,5-diphenyltetrazolium bromide (MTT) assay. The data represents the average of three measurements; the error bars represent±standard deviation.
In vitro efficacy of the liposomes was also studied using the MTT assay to assess cell viability. […] IC50 concentrations were also calculated for the solution drug and the targeted liposome. […]

Daudi cells = test: MTT cell viability assay, in vitro cytotoxicity in CD22+ Daudi cells; assay type: cell-based; conditions: Homo sapiens
Method: FIG. 14B is a graph showing the in vitro cytotoxicity of targeted, drug-loaded liposomes (solid line, “CD22 Targeted NP”) and untargeted, drug-loaded liposomes (dotted line, “Untargeted NP”) in Daudi cells after 24 hours. The Daudi cells have the cell surface antigen (CD22) to which the antibody of the targeted liposomes binds. For comparison, the in vitro cytotoxic effects of free (solution) drug (N-benzyladriamycin-14-valerate (AD198)) are also shown (dashed line, “Solution Drug”). Cytotoxicity is expressed as percentage (%) cell kill as measured via (3-(4,5-dimethylthiazol-2-yl)-2,5-diphenyltetrazolium bromide (MIT) cell viability assay. The data represents the average of three measurements; the error bars represent±standard deviation.
FIG. 15B is a graph showing the in vitro cytotoxicity of targeted, drug-loaded liposomes (solid line, “CD22 Targeted NP”) and untargeted, drug-loaded liposomes (dotted line, “Untargeted NP”) in Daudi cells after 48 hours. The Daudi cells have the cell surface antigen (CD22) to which the antibody of the targeted liposomes binds. […] Cytotoxicity is expressed as percentage (%) cell kill as measured via (3-(4,5-dimethylthiazol-2-yl)-2,5-diphenyltetrazolium bromide (MTT) cell viability assay. The data represents the average of three measurements; the error bars represent±standard deviation. […]

SMILES: CCCCC(=O)OCC(=O)[C@]1(O)Cc2c(O)c3c(c(O)c2[C@@H](O[C@H]2C[C@H](NCc4ccccc4)[C@H](O)[C@H](C)O2)C1)C(=O)c1c(OC)cccc1C3=O [AD198, N-benzyladriamycin-14-valerate]
- IC50 (Jurkat cells; Jurkat cells (CD22-), 24 hours): 1050 nM
- IC50 (Jurkat cells; Jurkat cells, 48 hours): 100 nM
- IC50 (Daudi cells; Daudi cells (CD22+), 24 hours): 250 nM
- IC50 (Daudi cells; Daudi cells, 48 hours): 100 nM
